Measured values as given in patent US20110105855A1, “EARLY DETECTION OF COGNITION IMPAIRMENT IN ELDERLY POPULATION” (TRUSTEES OF TUFTS COLLEGE, priority 2009, published 2011).

Assays:
[1] = elderly population of healthy 65 year olds; cited from earlier work
[2] = design: species or system rhesus monkeys (Macaca mulatta); settings: rhesus monkey, in vivo, 2.2 mg/kg/day
Description: Study 1. Lutein and Zeaxanthin Supplementation Study. Eighteen rhesus monkeys (Macaca mulatta) were reared on one of two semipurified diets, both of which contained adequate levels of all known nutrients, but no detectable xanthophylls as analyzed by our laboratory. The animals also received limited amounts of very low xanthophyll foods such as wheat or rice cereals, white rice, sweetened drinks and gelatin, pineapple and banana.
Beginning at 7-16 years of age, 6 of these monkeys were supplemented with pure lutein and 6 with pure zeaxanthin, at 3.9 μmol/kg/day (2.2 mg/kg/day). The lutein and zeaxanthin supplements were purified or synthesized by DSM Nutritional Products, Ltd. The supplements were inserted into marshmallows, sweetened gelatin or small pieces of fruit. Beadlets and individual supplement doses were stored at 4° C. in the dark. […]
Biopsy punches were used to dissect the central retina, containing the macula, into a 4 mm diameter circle centered on the fovea. Retinal tissue was analyzed for carotenoids as described previously (1). Cerebellum and occipital cortex samples were collected and analyzed for carotenoids as described by Park et al. (2). […]
Relationships between retina and brain tissue were evaluated using Pearson's correlation coefficients. For those relationships with sample size >6, p values were calculated.

cognitive function = settings: healthy older adults, intervention trial (Johnson et al. 2008); cited from earlier work

Structure (SMILES) | Average plasma level [1] | Carotenoids found in brain tissue [2] | Effect of supplementation on cognitive function (cognitive function)
CC1=C[C@H](O)CC(C)(C)[C@H]1/C=C/C(C)=C/C=C/C(C)=C/C=C/C=C(C)/C=C/C=C(C)/C=C/C1=C(C)C[C@@H](O)CC1(C)C [Lutein] | 0.27 ± 0.15 µM | the only carotenoid measured in brain tissue | improve cognitive function
CC1=C(/C=C/C(C)=C/C=C/C(C)=C/C=C/C=C(C)/C=C/C=C(C)/C=C/C2=C(C)C[C@@H](O)CC2(C)C)C(C)(C)C[C@H](O)C1 [Zeaxanthin] | 0.032 ± 0.021 µM | the only carotenoid measured in brain tissue | –
